# Data from PubChem BioAssay AID1259407 (Chemical Carcinogenesis Research Information System (CCRIS), 2018).
# Calls of active or inactive are those of the source. The rule behind the calls is not given here.
# Test system: CCRIS mutagenicity, Ames/micronucleus/aberration tests
# Assay: CCRIS mutagenicity studies
# [1] = Test System: AMES SALMONELLA TYPHIMURIUM, Strain/Indicator: TA98, Metabolic Activation: NONE, Method: PREINCUBATION
# [2] = Test System: AMES SALMONELLA TYPHIMURIUM, Strain/Indicator: TA100, Metabolic Activation: HAMSTER, LIVER, S-9, AROCLOR 1254 (30%), Method: PREINCUBATION
# [3] = Test System: AMES SALMONELLA TYPHIMURIUM, Strain/Indicator: TA100, Metabolic Activation: NONE, Method: PREINCUBATION
# [4] = Test System: AMES SALMONELLA TYPHIMURIUM, Strain/Indicator: TA100, Metabolic Activation: RAT, LIVER, S-9, AROCLOR 1254 (30%), Method: PREINCUBATION
# [5] = Test System: AMES SALMONELLA TYPHIMURIUM, Strain/Indicator: TA1535, Metabolic Activation: NONE, Method: PREINCUBATION
# [6] = Test System: AMES SALMONELLA TYPHIMURIUM, Strain/Indicator: TA100, Metabolic Activation: RAT, LIVER, S-9, AROCLOR 1254 (10%), Method: PREINCUBATION
compound,measurement,setting,value
O=C(O)CC[N+](=O)[O-],mutagenic call,"Test System: AMES SALMONELLA TYPHIMURIUM, Strain/Indicator: TA98, Metabolic Activation: HAMSTER, LIVER, S-9, AROCLOR 1254 (30%), Method: PREINCUBATION",inactive; negative
same,mutagenic call,[1],inactive; negative
same,mutagenic call,"Test System: AMES SALMONELLA TYPHIMURIUM, Strain/Indicator: TA98, Metabolic Activation: RAT, LIVER, S-9, AROCLOR 1254 (30%), Method: PREINCUBATION",inactive; negative
same,mutagenic call,[2],active; positive
same,mutagenic call,[3],active; positive
same,mutagenic call,[4],active; positive
same,mutagenic call,"Test System: CHINESE HAMSTER OVARY, Strain/Indicator: CHO-K1-BH4 (HGPRT)/6-THIOGUANINE, Metabolic Activation: NONE",inactive; negative
same,mutagenic call,"Test System: CHINESE HAMSTER OVARY, Strain/Indicator: CHO-K1-BH4 (HGPRT)/6-THIOGUANINE, Metabolic Activation: S-9",inactive; negative
same,mutagenic call,"Test System: E. COLI, Strain/Indicator: WP2 UVRA, Metabolic Activation: HAMSTER, LIVER, S-9, AROCLOR 1254, Method: STANDARD PLATE",inactive; negative
same,mutagenic call,"Test System: E. COLI, Strain/Indicator: WP2 UVRA, Metabolic Activation: HAMSTER, LIVER, S-9, Method: STANDARD PLATE",inactive; negative
same,mutagenic call,"Test System: E. COLI, Strain/Indicator: WP2 UVRA, Metabolic Activation: MOUSE, LIVER, S-9, AROCLOR 1254, Method: STANDARD PLATE",inactive; negative
same,mutagenic call,"Test System: E. COLI, Strain/Indicator: WP2 UVRA, Metabolic Activation: MOUSE, LIVER, S-9, Method: STANDARD PLATE",inactive; negative
same,mutagenic call,"Test System: E. COLI, Strain/Indicator: WP2 UVRA, Metabolic Activation: NONE, Method: STANDARD PLATE",inactive; negative
same,mutagenic call,"Test System: E. COLI, Strain/Indicator: WP2 UVRA, Metabolic Activation: RAT, LIVER, S-9, AROCLOR 1254, Method: STANDARD PLATE",inactive; negative
same,mutagenic call,"Test System: E. COLI, Strain/Indicator: WP2 UVRA, Metabolic Activation: RAT, LIVER, S-9, Method: STANDARD PLATE",inactive; negative
same,mutagenic call,"Test System: MOUSE LYMPHOMA, Strain/Indicator: L5178Y (TK+/TK-), Metabolic Activation: NONE, Method: SUSPENSION/PLATE",active; positive
same,mutagenic call,"Test System: MOUSE LYMPHOMA, Strain/Indicator: L5178Y (TK+/TK-), Metabolic Activation: RAT, LIVER, S-9, AROCLOR 1254, Method: SUSPENSION/PLATE",active; positive
N#CN=C(N)N,mutagenic call,"Test System: AMES SALMONELLA TYPHIMURIUM, Strain/Indicator: TA98, Metabolic Activation: MAIZE SEEDLING, S-14, Method: PREINCUBATION",active; positive
same,mutagenic call,"Test System: AMES SALMONELLA TYPHIMURIUM, Strain/Indicator: TA98, Metabolic Activation: MOUSE, LIVER, S-9, Method: PREINCUBATION",inactive; negative
same,mutagenic call,[1],inactive; negative
same,mutagenic call,"Test System: AMES SALMONELLA TYPHIMURIUM, Strain/Indicator: TA98, Metabolic Activation: RAT LIVER S-9, PHENOBARBITAL AND BETA-NAPHTHOFLAVONE, Method: PREINCUBATION",inactive; negative
same,mutagenic call,"Test System: AMES SALMONELLA TYPHIMURIUM, Strain/Indicator: TA100, Metabolic Activation: MAIZE SEEDLING, S-14, Method: PREINCUBATION",inactive; negative
same,mutagenic call,"Test System: AMES SALMONELLA TYPHIMURIUM, Strain/Indicator: TA100, Metabolic Activation: MOUSE, LIVER, S-9, Method: PREINCUBATION",inactive; negative
same,mutagenic call,[3],inactive; negative
same,mutagenic call,"Test System: AMES SALMONELLA TYPHIMURIUM, Strain/Indicator: TA100, Metabolic Activation: RAT LIVER S-9, PHENOBARBITAL AND BETA-NAPHTHOFLAVONE, Method: PREINCUBATION",inactive; negative
same,mutagenic call,"Test System: AMES SALMONELLA TYPHIMURIUM, Strain/Indicator: TA102, Metabolic Activation: NONE, Method: PREINCUBATION",inactive; negative
same,mutagenic call,"Test System: AMES SALMONELLA TYPHIMURIUM, Strain/Indicator: TA102, Metabolic Activation: RAT LIVER S-9, PHENOBARBITAL AND BETA-NAPHTHOFLAVONE, Method: PREINCUBATION",inactive; negative
same,mutagenic call,"Test System: AMES SALMONELLA TYPHIMURIUM, Strain/Indicator: TA104, Metabolic Activation: NONE, Method: PREINCUBATION",inactive; negative
same,mutagenic call,"Test System: AMES SALMONELLA TYPHIMURIUM, Strain/Indicator: TA104, Metabolic Activation: RAT LIVER S-9, PHENOBARBITAL AND BETA-NAPHTHOFLAVONE, Method: PREINCUBATION",inactive; negative
same,mutagenic call,[5],inactive; negative
same,mutagenic call,"Test System: AMES SALMONELLA TYPHIMURIUM, Strain/Indicator: TA1535, Metabolic Activation: RAT LIVER S-9, PHENOBARBITAL AND BETA-NAPHTHOFLAVONE, Method: PREINCUBATION",inactive; negative
same,mutagenic call,"Test System: AMES SALMONELLA TYPHIMURIUM, Strain/Indicator: TA1537, Metabolic Activation: NONE, Method: PREINCUBATION",inactive; negative
same,mutagenic call,"Test System: AMES SALMONELLA TYPHIMURIUM, Strain/Indicator: TA1537, Metabolic Activation: RAT LIVER S-9, PHENOBARBITAL AND BETA-NAPHTHOFLAVONE, Method: PREINCUBATION",inactive; negative
same,mutagenic call,"Test System: AMES SALMONELLA TYPHIMURIUM, Strain/Indicator: TA1538, Metabolic Activation: NONE, Method: PREINCUBATION",inactive; negative
same,mutagenic call,"Test System: E.COLI, Strain/Indicator: WP2UVRA/PKM101, Metabolic Activation: NONE, Method: PREINCUBATION",inactive; negative
same,mutagenic call,"Test System: E.COLI, Strain/Indicator: WP2UVRA/PKM101, Metabolic Activation: RAT LIVER S-9, PHENOBARBITAL AND BETA-NAPHTHOFLAVONE, Method: PREINCUBATION",inactive; negative
same,mutagenic call,"Test System: E.COLI, Strain/Indicator: WP2UVRA, Metabolic Activation: NONE, Method: PREINCUBATION",inactive; negative
same,mutagenic call,"Test System: E.COLI, Strain/Indicator: WP2UVRA, Metabolic Activation: RAT LIVER S-9, PHENOBARBITAL AND BETA-NAPHTHOFLAVONE, Method: PREINCUBATION",inactive; negative
CCOc1ccccc1N,mutagenic call,"Test System: AMES SALMONELLA TYPHIMURIUM, Strain/Indicator: TA97, Metabolic Activation: HAMSTER, LIVER, S-9, AROCLOR 1254 (10 OR 30%), Method: PREINCUBATION",inactive; negative
same,mutagenic call,"Test System: AMES SALMONELLA TYPHIMURIUM, Strain/Indicator: TA97, Metabolic Activation: NONE, Method: PREINCUBATION",inactive; negative
same,mutagenic call,"Test System: AMES SALMONELLA TYPHIMURIUM, Strain/Indicator: TA97, Metabolic Activation: RAT, LIVER, S-9, AROCLOR 1254 (10 OR 30%), Method: PREINCUBATION",inactive; negative
same,mutagenic call,"Test System: AMES SALMONELLA TYPHIMURIUM, Strain/Indicator: TA98, Metabolic Activation: HAMSTER, LIVER, S-9, AROCLOR 1254 (10 OR 30%), Method: PREINCUBATION",inactive; negative
same,mutagenic call,[1],inactive; negative
same,mutagenic call,"Test System: AMES SALMONELLA TYPHIMURIUM, Strain/Indicator: TA98, Metabolic Activation: RAT, LIVER, S-9, AROCLOR 1254 (10 OR 30%), Method: PREINCUBATION",inactive; negative
same,mutagenic call,"Test System: AMES SALMONELLA TYPHIMURIUM, Strain/Indicator: TA100, Metabolic Activation: HAMSTER, LIVER, S-9, AROCLOR 1254 (10%), Method: PREINCUBATION",inactive; negative
same,mutagenic call,[2],inactive; negative
same,mutagenic call,[3],inactive; negative
same,mutagenic call,[6],inactive; negative
same,mutagenic call,[4],inactive; negative
same,mutagenic call,"Test System: AMES SALMONELLA TYPHIMURIUM, Strain/Indicator: TA1535, Metabolic Activation: HAMSTER, LIVER, S-9, AROCLOR 1254 (10 OR 30%), Method: PREINCUBATION",inactive; negative
same,mutagenic call,[5],inactive; negative
same,mutagenic call,"Test System: AMES SALMONELLA TYPHIMURIUM, Strain/Indicator: TA1535, Metabolic Activation: RAT, LIVER, S-9, AROCLOR 1254 (10 OR 30%), Method: PREINCUBATION",inactive; negative
CCCc1cc2ccccc2c2ccc3c(c12)C1OC1C(O)C3O (configuration not stated),mutagenic call,[3],inactive; negative
O=C1c2ccccc2C(=O)c2cc(O)ccc21,mutagenic call,[1],active; positive
same,mutagenic call,"Test System: AMES SALMONELLA TYPHIMURIUM, Strain/Indicator: TA98, Metabolic Activation: RAT, LIVER, S-9, AROCLOR 1254 (10%), Method: PREINCUBATION",active; positive
same,mutagenic call,[3],inactive; negative
same,mutagenic call,[6],inactive; negative
